This note sets out measurements from US20240309360A1, “TRANS-ACTIVATORS AND METHODS AND USE THEREOF” (THE GOVERNING COUNCIL OF THE UNIVERSITY OF TORONTO, priority 2021, published 2024).

For the assay, the system named is EGFP reporter (7×TetO array, basal CMV promoter) in HEK293T reporter cell line. Put plainly: TAD-seq pooled activation screen of 60-aa fragments fused to PYL1. The note with it: for Hit high GFP: high GFP population (top 1%); for logFC high GFP / logFC medium GFP: log 2 fold change of counts, 100 μM ABA 48 hours; for logFC high GFP: sorted high GFP cells (top 1%) vs unsorted cells; for logFC medium GFP: sorted medium GFP cells (top 2-5%) vs unsorted cells; for Hit medium GFP: medium GFP population (top 2-5%). The assay is classed as cell-based, human. The text has this: A fragment library of 75 activators identified in our screen was generated, using 60 amino-acid tiles every 20 aa such that every amino acid was represented by three different fragments (FIG. 3A). The pooled fragment library was fused to PYL1 and recruited to the same GFP reporter used in the original ORFeome screen (FIG. 3A). […] The GFP positive population was sorted into two independent replicates, and fragments in each population were quantified by sequencing. However, in contrast to the ORFeome screen, both high GFP cells (top 1%) and medium GFP cells (top 2-5%) were sorted to potentially identify transactivators of different strength.
Activation domain tiling library generation. A tiling library was generated from 75 proteins identified as activators in the ORFeome screen. Oligonucleotides containing a 5′ adapter […] (SEQ ID NO: 23) and a 3′ adapter […] (SEQ ID NO: 24) to generate a 5′ adapter ([…]) (SEQ ID NO: 11) and a 3′ adapter ([…]) (SEQ ID NO: 12) were synthesized as pooled libraries (Twist Biosciences). 6×50 μl PCR reactions were set up using NEBNext Ultra II Q5 master mix (New England Biolabs) with 5 nM oligos as template. PCR conditions were optimized to find the lowest cycle with a clean visible product at the expected 300 bp length. The thermocycling condition was an initial 30 s at 98° C., then 2 cycles of 98° C. for 10 s, 63° C. for 20 s, and 72° C. for 15 s, followed by 10 more cycles of 98° C. for 10 s and 72° C. for 30 s with a final extension at 72° C. for 5 min. Primers were designed to have Gateway compatible flanking sequences. The resulting libraries were gel extracted by QIAgen gel extraction kit after loading on a 2% TAE gel for 2 hrs at 60V and subsequently cloned into pDONR221 using 20 separate BP reactions in total of 5 μl reactions. The entry plasmid pool was transformed after an overnight reaction into DHSalpha competent E. coli and incubated overnight on LB agar plates containing kanamycin ([…]). Colonies were collected and plasmid DNA purified. 20 LR reactions were then set up as described in the previous section. Each reaction was transformed into NEB 10-beta chemically competent E. coli and grown on LB agar plates containing carbenicillin ([…]) overnight at 30° C. Colonies were counted to ensure >200-fold coverage at each step of cloning, pooled and maxiprepped.
Pooled activation screens. ORFeome and transactivation tiling libraries tagged at the C-terminus with PYL1 were packaged into lentiviral particles. A clonal EGFP reporter cell line stably co-expressing ABI-dCas9 and a gRNA targeting the promoter were transduced at low multiplicity of infection (MOI) with approximately 30% cell survival after puromycin (1 μg/mL) selection. Untransduced cells under the same condition were fully eliminated. Sufficient cells were transduced to maintain >500 fold coverage of the libraries. Recruitment was induced by treating cells with 100 μM abscisic acid (ABA, Sigma) for 48 hours. In parallel, a control batch of cells were treated with equal total volume of DMSO. Cells were then washed in PBS, treated with dissociation buffer (1 mM EDTA, 10 mM KCl, 150 mM NaCl, 5 mM sodium bicarbonate, 0.1% glucose) and resuspended in flow buffer (5 mM EDTA, 25 mM HEPES pH 7, 1% BSA, PBS). High GFP population for each library, top 1% for ORFeome and two bins of top 1% and the next 4% for the TAD screen, were sorted and their genomic DNA directly extracted using QIAmp DNA Blood Mini Kit (QIAGEN).
TAD sequencing. Performed nested PCR on the purified genomic DNA using primers targeting T7 promoter and PYL1 of the backbone vector in the first step creating a ˜470 bp product. Products of the first reaction were then pooled and amplified for an additional 10 steps using primers targeting outside the Gateway sites creating a ˜300 bp product. Libraries were quantified on Qubit dsDNA Broad Range kit and paired-end sequenced on an Illumina MIseq with a custom PAGE-purified R1 sequencing primer. […]

As for “C3orf62-11: 60-aa TAD-seq fragment of C3orf62 (NHMCGHCQDSPFKEEAWALLMDKSPQKATDADPGSLKQAFDDHNIVETVLDLEEDYNVMT; listed as Homo sapiens) [Fragment C3orf62-11]”, the “Hit high GFP” value is “hit”, the “logFC high GFP” value was 6.023 and the “logFC medium GFP” value is −0.5261.

Turning to “ATF6B-1: 60-aa TAD-seq fragment of ATF6B (MAELMLLSEIADPTRFFTDNLLSPEDWGLQNSTLYSGLDEVAEEQTQLFRCPEQDVPFDG; listed as Homo sapiens)”, the “Hit high GFP” value is reported as “hit”, the “logFC high GFP” value stood at 1.917, the “logFC medium GFP” value stood at 0.9931 and the “Hit medium GFP” value was “hit”.

Consider “ZXDC-13: 60-aa TAD-seq fragment of ZXDC (YLESGGSARTDYRAIQLAKEKKQRGAGSNAGASQSTQRKIKEGKMSPPHFHASQNSWLCG; listed as Homo sapiens)”, for which the “Hit high GFP” value is recorded as “hit”, the “logFC high GFP” value is 2.377, the “logFC medium GFP” value came to 1.734 and the “Hit medium GFP” value is listed as “hit”.

With “CITED1-7: 60-aa TAD-seq fragment of CITED1 (LQNWDFGAQAGGAESLSPSAGAQSPAIIDSDPVDEEVLMSLVVELGLDRANELPELWLGQ; listed as Homo sapiens)”, the “Hit high GFP” value is “hit”, the “logFC high GFP” value is on record as 4.314, the “logFC medium GFP” value is on record as 1.597 and the “Hit medium GFP” value is “hit”.

As to “NPAS4-37: 60-aa TAD-seq fragment of NPAS4 (DPSEEWGSGDPEAEGPGGAPSPCNNLSPEDHSFLEDLATYETAFETGVSAFPYDGFTDEL; listed as Homo sapiens)”, the “Hit high GFP” value is “hit”, the “logFC high GFP” value amounted to 1.645 and the “logFC medium GFP” value stood at 0.7019.

Turning to “ELF4-2: 60-aa TAD-seq fragment of ELF4 (DDIHQLEDPSVFPAVIVEQVPYPDLLHLYSGLELDDVHNGIITDGTLCMTQDQILEGSFL; listed as Homo sapiens)”, the “Hit high GFP” value was “hit”, the “logFC high GFP” value is on record as 1.467, the “logFC medium GFP” value was determined as 1.364 and the “Hit medium GFP” value is “hit”.

As to “MYCL1-1: 60-aa TAD-seq fragment of MYCL1 (MDYDSYQHYFYDYDCGEDFYRSTAPSEDIWKKFELVPSPPTSPPWGLGPGAGDPAPGIGP; listed as Homo sapiens)”, the “logFC high GFP” value amounted to 1.137, the “logFC medium GFP” value came out at 0.7968 and the “Hit medium GFP” value is “hit”.

In the case of “ATMIN-24: 60-aa TAD-seq fragment of ATMIN (NPGPDTQLPSGPAQNPGIDFDIEEFFSASNIQTQTEESELSTMTTEPVLESLDIETQTDF; listed as Homo sapiens)”, the “logFC high GFP” value is given as 1.233, the “logFC medium GFP” value is 0.988 and the “Hit medium GFP” value was “hit”.

On to “DDIT3-1: 60-aa TAD-seq fragment of DDIT3 (MAAESLPFSFGTLSSWELEAWYEDLQEVLSSDENGGTYVSPPGNEEEESKIFTTLDPASL; listed as Homo sapiens)”, for which the “Hit high GFP” value is given as “hit”, the “logFC high GFP” value was found to be 2.373, the “logFC medium GFP” value was 1.502 and the “Hit medium GFP” value is recorded as “hit”.

Turning to “CITED2-11: 60-aa TAD-seq fragment of CITED2 (MPASVAHVPAAMLPPNVIDTDFIDEEVLMSLVIEMGLDRIKELPELWLGQNEFDFMTDFV; listed as Homo sapiens)”, the “Hit high GFP” value is on record as “hit”, the “logFC high GFP” value is on record as 6.165 and the “logFC medium GFP” value was 0.9491.

For the substance “NPAS4-31: 60-aa TAD-seq fragment of NPAS4 (DVPLVPEGLLTPEASPVKQSFFHYSEKEQNEIDRLIQQISQLAQGMDRPFSAEAGTGGLE; listed as Homo sapiens)”, the “logFC high GFP” value turned out to be 1.22, the “logFC medium GFP” value was 0.8563 and the “Hit medium GFP” value is “hit”.

With “SERTAD2-11: 60-aa TAD-seq fragment of SERTAD2 (SEAGTQKLDGPQESRADDSKLMDSLPGNFEITTSTGFLTDLTLDDILFADIDTSMYDFDP; listed as Homo sapiens)”, the “Hit high GFP” value was “hit”, the “logFC high GFP” value is recorded as 2.48, the “logFC medium GFP” value amounted to 1.822 and the “Hit medium GFP” value is “hit”.

“ZXDC-16: 60-aa TAD-seq fragment of ZXDC (SLVVPSGGRPGPAPAAGVQCGAQGVQVQLVQDDPSGEGVLPSARGPATFLPFLTVDLPVY; listed as Homo sapiens)”: the “logFC high GFP” value is 0.4785, the “logFC medium GFP” value is 0.7293 and the “Hit medium GFP” value is listed as “hit”.

Regarding “NEUROD1-6: 60-aa TAD-seq fragment of NEUROD1 (LRRMKANARERNRMHGLNAALDNLRKVVPCYSKTQKLSKIETLRLAKNYIWALSEILRSG; listed as Homo sapiens)”, the “logFC high GFP” value is on record as 0.6708, the “logFC medium GFP” value is 0.9533 and the “Hit medium GFP” value is “hit”.

For the substance “C11orf74-1: 60-aa TAD-seq fragment of C11orf74 (MSAHMSGLEIMDEDQLIKDVLDKFLNCHEQTYDEEFLNTFTHLSQDLLLLPGEVEQDVST; listed as Homo sapiens) [Fragment C11orf74-1]”, the “Hit high GFP” value is reported as “hit”, the “logFC high GFP” value was determined as 2.356, the “logFC medium GFP” value was 1.551 and the “Hit medium GFP” value is listed as “hit”.

As for “DDIT3-2: 60-aa TAD-seq fragment of DDIT3 (WYEDLQEVLSSDENGGTYVSPPGNEEEESKIFTTLDPASLAWLTEEEPEPAEVTSTSQSP; listed as Homo sapiens)”, the “logFC high GFP” value is 1.138, the “logFC medium GFP” value is 1.28 and the “Hit medium GFP” value is listed as “hit”.

As to “ATXN7L3-4: 60-aa TAD-seq fragment of ATXN7L3 (FEIVDQPGLDIFGQVFNQWKSKECVCPNCSRSIAASRFAPHLEKCLGMGRNSSRIANRRI; listed as Homo sapiens)”, the “logFC high GFP” value turned out to be 0.7641, the “logFC medium GFP” value was found to be 0.7514 and the “Hit medium GFP” value is on record as “hit”.

In the case of “NPAS4-34: 60-aa TAD-seq fragment of NPAS4 (PLGGLEPLDSNLSLSGAGPPVLSLDLKPWKCQELDFLADPDNMFLEETPVEDIFMDLSTP; listed as Homo sapiens)”, the “logFC high GFP” value is 0.946, the “logFC medium GFP” value is 0.9186 and the “Hit medium GFP” value is given as “hit”.

On to “ATF6-1: 60-aa TAD-seq fragment of ATF6 (MGEPAGVAGTMESPFSPGLFHRLDEDWDSALFAELGYFTDTDELQLEAANETYENNFDNL; listed as Homo sapiens)”, for which the “Hit high GFP” value is recorded as “hit”, the “logFC high GFP” value came out at 3.145, the “logFC medium GFP” value is 1.563 and the “Hit medium GFP” value is given as “hit”.

For “HSF1-20: 60-aa TAD-seq fragment of HSF1 (KNELSDHLDAMDSNLDNLQTMLSSHGFSVDTSALLDLFSPSVTVPDMSLPDLDSSLASIQ; listed as Homo sapiens)”, the “logFC high GFP” value is 0.6234, the “logFC medium GFP” value is listed as 0.7077 and the “Hit medium GFP” value is listed as “hit”.

Take “NPAS4-36: 60-aa TAD-seq fragment of NPAS4 (DNMFLEETPVEDIFMDLSTPDPSEEWGSGDPEAEGPGGAPSPCNNLSPEDHSFLEDLATY; listed as Homo sapiens)”: the “logFC high GFP” value worked out at 0.671, the “logFC medium GFP” value was 1.209 and the “Hit medium GFP” value is listed as “hit”.
